Results published in US5474921A, “Expression and purification of phosphoinositide-specific phospholipase C-γ” (Merck & Co., Inc., priority 1993, dated 1995).

B1: bacterially expressed PLCγ1: rat brain PLCγ1 with C-terminal Glu-Glu-Phe epitope tag, expressed in E. coli BL21 (DE3) from plasmid pT5T-PLC4 (protein, UniProt P10686 2-1290, looked up)
1-phosphatidylinositol …: AGVGTPCANGCGPSAPSEAEVLHLCRSLEVGTVMTLFYSKKSQRPERKTFQVKLETRQITWSRGADKIEGSIDIREIKEIRPGKTSRDFDRYQEDPAFRPDQSHCFVILYGMEFRLKTLSLQATSEDEVNMWIKGLTWLMEDTLQAATPLQIERWLRKQFYSVDRNREDRISAKDLKNMLSQVNYRVPNMRFLRERLTDFEQRSGDITYGQFAQLYRSLMYSAQKTMDLPFLETNTLRTGERPELCQVSLSEFQQFLLEYQGELWAVDRLQVQEFMLSFLRDPLREIEEPYFFLDELVTFLFSKENSVWNSQLDAVCPETMNNPLSHYWISSSHNTYLTGDQFSSESSLEAYARCLRMGCRCIELDCWDGPDGMPVIYHGHTLTTKIKFSDVLHTIKEHAFVASEYPVILSIEDHCSIAQQRNMAQHFRKVLGDTLLTKPVDIAADGLPSPNQLKRKILIKHKKLAEGSAYEEVPTSVMYSENDISNSIKNGILYLEDPVNHEWYPHYFVLTSSKIYYSEETSSDQGNEDEEEPKEASGSTELHSSEKWFHGKLGAGRDGRHIAERLLTEYCIETGAPDGSFLVRESETFVGDYTLSFWRNGKVQHCRIHSRQDAGTPKFFLTDNLVFDSLYDLITHYQQVPLRCNEFEMRLSEPVPQTNAHESKEWYHASLTRAQAEHMLMRVPRDGAFLVRKRNEPNSYAISFRAEGKIKHCRVQQEGQTVMLGNSEFDSLVDLISYYEKHPLYRKMKLRYPINEEALEKIGTAEPDYGALYEGRNPGFYVEANPMPTFKCAVKALFDYKAQREDELTFTKSAIIQNVEKQDGGWWRGDYGGKKQLWFPSNYVEEMINPAILEPEREHLDENSPLGDLLRGVLDVPACQIAIRPEGKNNRLFVFSISMPSVAQWSLDVAADSQEELQDWVKKIREVAQTADARLTEGKMMERRKKIALELSELVVYCRPVPFDEEKIGTERACYRDMSSFPETKAEKYVNKAKGKKFLQYNRLQLSRIYPKGQRLDSSNYDPLPMWICGSQLVALNFQTPDKPMQMNQALFMAGGHCGYVLQPSTMRDEAFDPFDKSSLRGLEPCVICIEVLGARHLPKNGRGIVCPFVEIEVAGAEYDSTKQKTEFVVDNGLNPVWPAKPFHFQISNPEFAFLRFVVYEEDMFSDQNFLAQATFPVKGLKTGYRAVPLKNNYSEDLELASLLIKIDIFPAKENGDLSPFSGTSLRERASDASSQLFHVRAREGSFEARYQQPFEDFRISQEHLADHFDSRERRAPRRTRVNGDNRL
modifications: C-terminal Glu-Glu-Phe epitope tag

What was measured:
[1] = molecular target: T1, PLCγ1 (Rattus norvegicus, UniProt P10686); test: Assay of inhibitory activity of compounds against PLCγ1 (hydrolysis of [3H]-phosphatidyl inositol by purified bacterially expressed PLCγ1); format: biochemical; settings: 30° C., pH 7.5, 0.1% deoxycholate, compound included prior to addition of enzyme
T1 construct: made in house; host or cells: E. coli BL21 (DE3)
T1 sequence (P10686 with tags, fused parts or gaps limits assumed): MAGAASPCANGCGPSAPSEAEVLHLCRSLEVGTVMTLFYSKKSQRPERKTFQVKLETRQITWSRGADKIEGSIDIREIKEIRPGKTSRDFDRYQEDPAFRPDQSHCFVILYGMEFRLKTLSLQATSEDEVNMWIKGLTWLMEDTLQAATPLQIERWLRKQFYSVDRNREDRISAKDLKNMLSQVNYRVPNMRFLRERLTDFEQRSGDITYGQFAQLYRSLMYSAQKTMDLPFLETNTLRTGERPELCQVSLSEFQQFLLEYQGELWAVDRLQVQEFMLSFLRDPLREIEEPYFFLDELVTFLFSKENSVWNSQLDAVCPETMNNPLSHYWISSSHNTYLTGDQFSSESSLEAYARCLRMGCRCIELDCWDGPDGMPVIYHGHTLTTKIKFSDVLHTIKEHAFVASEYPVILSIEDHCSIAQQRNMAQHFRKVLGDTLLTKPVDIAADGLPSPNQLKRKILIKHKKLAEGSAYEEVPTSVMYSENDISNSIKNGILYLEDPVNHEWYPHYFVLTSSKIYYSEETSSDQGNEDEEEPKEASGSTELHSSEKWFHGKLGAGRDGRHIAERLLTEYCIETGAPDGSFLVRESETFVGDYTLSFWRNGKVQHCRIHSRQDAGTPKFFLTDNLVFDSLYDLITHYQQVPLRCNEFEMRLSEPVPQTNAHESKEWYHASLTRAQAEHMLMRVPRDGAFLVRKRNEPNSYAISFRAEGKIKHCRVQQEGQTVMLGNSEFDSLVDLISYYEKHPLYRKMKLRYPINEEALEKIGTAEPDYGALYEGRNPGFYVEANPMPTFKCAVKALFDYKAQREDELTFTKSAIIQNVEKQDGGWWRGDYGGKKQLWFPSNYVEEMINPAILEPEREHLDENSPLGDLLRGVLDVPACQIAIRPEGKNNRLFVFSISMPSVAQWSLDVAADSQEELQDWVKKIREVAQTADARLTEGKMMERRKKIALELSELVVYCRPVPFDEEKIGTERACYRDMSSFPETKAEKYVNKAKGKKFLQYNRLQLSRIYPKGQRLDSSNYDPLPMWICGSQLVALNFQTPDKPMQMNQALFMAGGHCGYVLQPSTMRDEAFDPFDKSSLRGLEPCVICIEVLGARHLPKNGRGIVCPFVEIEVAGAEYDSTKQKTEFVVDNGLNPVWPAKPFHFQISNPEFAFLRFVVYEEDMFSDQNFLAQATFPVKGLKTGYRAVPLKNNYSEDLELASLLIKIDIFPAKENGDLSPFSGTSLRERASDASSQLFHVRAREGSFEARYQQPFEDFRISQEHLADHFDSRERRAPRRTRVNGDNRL
Excerpt: Subcloning of the PLCγ1 Coding Sequence. Rat brain cDNA is synthesized using rat brain poly(A)RNA as template by literature protocol (Sambrook, J. et al., Molecular Cloning: A Laboratory Manual, Cold Spring Harbor Laboratory Press, Cold Spring Harbor, N.Y.). From the published cDNA sequence of rat brain PLCγ1 (Suh, P. -G., Ryu, S. H., Moon, K. H., Suh, H. W., & Rhee, S. G. (1988) Proc. Natl. Acad. Sci. USA 85, 5419-5423), PCR primers, one which contains a BamHI restriction site upstream of the sequence complementary to the 5' end of the PLCγ gene (primer 01 ), and the other one which contains a HindIII site downstream of the 3' end of the PLCγ gene (primer 04), were synthesized. Carrying out the PCR using these primers (01 and 04) with the above mentioned rat brain eDNA as template, a DNA fragment with the entire rat brain PLCγ1 coding sequence, flanked by a 5' BamHI site and a 3' HindIII site, is generated. This BarnHI-HindIII fragment containing the coding sequence of PLCγ1 was subcloned into pBSII(S/K)+, generating pPLCl. The rest of the manipulations were accomplished using PCR to generate the appropriate DNA fragment. The 5' end of the PLCγ1 gene was altered to include a new BarnHi site and a sequence that would eventually translationally couple the expression of PLCγ to the .phi.10 gene of the pT5T vector as described by Eisenberg, S. P., Evans, R. J., Arend, W. P., Verderber, E., Brewer, M. T., Hannum, C. H., & Thompson, R. C. (1990) Nature(London) 343,341-346.
Using the isolated mutant fragments from each of these PCRs together as template, the final PCR was carried out using primers 03-06 which yielded, after restriction enzyme digestion, a SphI and HindIll fragment which was used to replace the analogous fragment in pPLC2. The resulting plasmid, pPLC3, contained the coding sequence of the PLCγ1 gene on a BarnHI-HindlII fragment with both the sequence encoding the Glu-Glu-Phe tag at the 3' end as well as the changed AGG codons. […] (SEQ.ID.NO.: 3) Finally, the BarnHI-HindIII fragment from pPLC3 was transferred into the BamHI-HindIII site of pTST, generating pTST-PLC4. This construct was used to produce PLCγ1 (containing the Glu-Glu-Phe epitope tag at the C-terminus) translationally coupled to the expression of .phi.10 protein in the pT5T vector.
Expression and Purification of PLCγ1. To express PLCγ1 the plasmid pT5T-PLC4 was transformed into E. coli BL21 (DE3). The transformed cells were grown in LB media containing ampicillin (100 μg/ml) and tetracycline (12.5 μg/ml) at 20° C. until the optical density of the cultures at 550 nm was equal to 0.8. This transformed bacterial cell has been deposited with the ATCC and has been assigned the number ATCC 69421. Expression of PLCγ1 was then induced by addition of isopropyl β-D-thiogalactopyranoside (0.5 mM final concentration) to the cultures. After growing for another 6 hours the cells were harvested and PLCγ1 was purified as described below. PLCγ1 was isolated from E. coli by resuspending a cell pellet in standard buffer, 50 mM Tris-C1 pH 8.0, 2 mM MgCl2, 10 mM CaCl2, 1 mM EGTA, 5 mM DTT, 5 mM streptomycin sulfate, 1 mM PMSF, 2 μg/ml leupeptin, 2 μg/ml antipain, 10 μg/ml aprotinin (approximately 5 g wet packed cells/10 ml buffer). The resuspended cells were broken by sonication and the cell debris pelleted by centrifugation at 30,000×g at 4° C. for 30 minutes. The soluble fraction was applied at a flow rate of approximately 0.5 ml/min. to a 2 ml column of the monoclonal antibody YL 1/2(4 mg antibody/ml resin) coupled to cyanogen bromide activated Sepharose. The YL1/2 Sepharose column, which binds the epitope tag Glu-Glu-Phe had previously been equilibrated with standard buffer. After loading the protein onto the column, the column was washed with standard buffer (100 mls) PLCγ1 was eluted with 3×5ml 5 mM Asp-Phe dipeptide (Sigma) in standard buffer. The column was regenerated by washing with phosphate buffered saline (PBS)+2 M NaCl and then stored in PBS +0.02% NaN3 (wt./vol). […]

[2] = tested on: macrophages; settings: background statement; cited from earlier work
[3] = tested on: platelets; settings: background statement; cited from earlier work
[4] = tested on: phospholipase C; settings: background statement; cited from earlier work
[5] = Assay of purified PLCγ1 activity (hydrolysis of [3H]-phosphatidyl inositol); format: biochemical; settings: 30° C., 50 mM HEPES pH 7.5; bacterially expressed vs naturally derived enzyme in the same assay
Excerpt: Reactions were never allowed to proceed to more than 10% completion based on the limiting substrate.

Molecule	IC50 ([1]; Table 1)	other results
O=P(O)(O)C(O)c1ccc(Oc2cccc(Cl)c2)cc1 (stereo not drawn) [drawing 2: R3=H, R4=Cl, R5=H]		IC50 ([1]; Table 2): 5 µM
c1ccc2c(c1)Nc1ccccc1S2 [phenothiazine]		inhibition of stimulated release of arachidonic acid from macrophages [2]: inhibit; inhibition of stimulated release of prostaglandins from platelets [3]: inhibit; inhibition of phospholipase C [4]: inhibited
CCc1cccc(Oc2ccc(C(O)P(=O)(O)O)cc2)c1 (stereo not drawn) [drawing 2: R3=H, R4=CH2CH3, R5=H]		IC50 ([1]; Table 2): 37 µM
Cc1ccc(Oc2cccc(C(O)P(=O)(O)O)c2)cc1 (stereo not drawn) [drawing 1: R3=H, R4=H, R5=CH3]	13 µM	
O=P(O)(O)C(O)c1cccc(Oc2ccc(O)cc2)c1 (stereo not drawn) [drawing 1: R3=H, R4=H, R5=OH]	3 µM	
O=P(O)(O)C(O)c1cccc(Oc2ccccc2Cl)c1 (stereo not drawn) [drawing 1: R3=Cl, R4=H, R5=H]	17 µM	
O=P(O)(O)C(O)c1cccc(Oc2cccc(Cl)c2)c1 (stereo not drawn) [drawing 1: R3=H, R4=Cl, R5=H]	10 µM	
O=P(O)(O)C(O)c1cccc(Oc2ccc(Cl)cc2)c1 (stereo not drawn) [drawing 1: R3=H, R4=H, R5=Cl]	36 µM	
O=P(O)(O)C(O)c1cccc(Oc2ccc(Cl)c(Cl)c2)c1 (stereo not drawn) [drawing 1: R3=H, R4=Cl, R5=Cl]	56 µM	
COc1cccc(Oc2ccc(C(O)P(=O)(O)O)cc2)c1 (stereo not drawn) [drawing 2: R3=H, R4=OCH3, R5=H]		IC50 ([1]; Table 2): 8 µM
COc1ccc(Oc2cccc(C(O)P(=O)(O)O)c2)cc1 (stereo not drawn) [drawing 1: R3=H, R4=H, R5=OCH3]	7 µM	
O=P(O)(O)C(O)c1cccc(Oc2ccccc2)c1 (stereo not drawn) [drawing 1: R3=H, R4=H, R5=H]	190 µM	
B1		specific activity [5]: 13.8 µmol/min/mg
